Results taken from paper PMC6912361, “Systemic Toxicity Reported for CDK8/19 Inhibitors CCT251921 and MSC2530818 Is Not Due to Target Inhibition” (Cells, 2019).
“And” between values parts separate entries of the source, which are not always exact repeats. Identical values can stand only once. Like-named read-outs stand apart in the source and are kept apart here.

Tests used:
[1] = tested on: non-dechorionated embryos of zebrafish TU strain; assay: Zebrafish toxicity assay, non-dechorionated embryos (TU strain); format: in vivo
Procedure: The toxicity studies in non-dechorionated embryos of zebrafish TU strain were approved by the Institutional Animal Care and Use Committee of the University of South Carolina. The studies were conducted in sterile 24-well plates with one 24 hpf embryo in each well in a 1 mL volume of egg water. For each plate, 6 wells were treated with vehicle control and the other 18 wells (i.e., biological replicates) were treated with different CDK8/19 inhibitors at different concentrations. […] All the data from the plates with at least five healthy vehicle-treated embryos on day 5 were compiled together for final data analysis.

[2] = tested on: CDK8/19; assay: Cell-based QPCR assay of CDK8/19-dependent gene expression, HEK293 parental (WT) cells; design: species or system human; settings: HEK293 WT, 1 h pre-treatment, then 10 ng/mL TNFα 2 h, QPCR
Procedure: All cells were cultured in DMEM (high-glucose) media supplemented with 10% fetal bovine serum (FBS) and Penicillin-Streptomycin-Glutamine (1×) at 37 °C with 5% CO2 and routinely confirmed to be free of mycoplasma.
(§4) Total RNA was extracted using RNAeasy Mini Kit (Qiagen, Germantown, MD, USA) and 1 µg of total RNA was used to generate cDNA using iScript cDNA synthesis kit (Bio-Rad Laboratories, Hercules, CA, USA). Gene expression was quantified using iTaq Universal SYBR green super mix using CFX384 Real-Time System (Bio-Rad).
The IC50 values for different inhibitors in inhibiting CDK8/19-dependent gene expression were calculated using a three-parameter least square (ordinary) fitting method with GraphPad Prism 7.0 (GraphPad Software, San Diego, CA, USA).
(§5) Cells were pre-treated with different concentrations of CDK8/19 inhibitors for 1 h and then 10 ng/mL TNFα, an inducer of transcription factor NFκB, which is potentiated by CDK8/19 [5], was added for 2 h before RNA extraction. QPCR was carried out to quantify CDK8/19-regulated expression of NFκB-inducible genes CXCL1 and CXCL8 and the basal expression of MYC.

[3] = molecular target: T1, STK16 (Homo sapiens, UniProt O75716); assay: KdELECT Kd determination, STK16; settings: 11-point 3-fold serial dilution, duplicate; read-out: Kd for the inhibition of nucleotide binding, STK16
T1 construct: purchased DiscoverX
T1 sequence (O75716 whole entry): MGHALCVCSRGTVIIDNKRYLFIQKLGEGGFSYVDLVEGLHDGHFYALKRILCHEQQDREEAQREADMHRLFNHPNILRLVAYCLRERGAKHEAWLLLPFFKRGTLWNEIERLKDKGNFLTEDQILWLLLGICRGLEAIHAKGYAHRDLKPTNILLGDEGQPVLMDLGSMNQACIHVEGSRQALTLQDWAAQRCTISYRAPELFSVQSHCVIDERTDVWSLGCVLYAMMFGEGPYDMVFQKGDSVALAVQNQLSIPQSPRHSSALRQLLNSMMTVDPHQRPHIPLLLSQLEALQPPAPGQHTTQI
Procedure: (§1) The screening platform employs an active site-directed competition binding assay to quantitatively measure interactions between test compounds and targeting kinases. […] To determine dissociation constants (Kds) of compounds on different targets, an 11-point 3-fold serial dilution of each test compound was tested in independent duplicate assays.
(§2) This assay has been previously used with many CDK8/19 inhibitors, including cortistatin A and its equipotent analog dCA [20, 21]; 15w.

[4] = molecular target: T2, JNK1 (MAPK8) (Homo sapiens, UniProt P45983); assay: KdELECT Kd determination, JNK1; settings: 11-point 3-fold serial dilution, duplicate; read-out: Kd for the inhibition of nucleotide binding, JNK1 (MAPK8)
T2 construct: purchased DiscoverX
T2 sequence (P45983 whole entry): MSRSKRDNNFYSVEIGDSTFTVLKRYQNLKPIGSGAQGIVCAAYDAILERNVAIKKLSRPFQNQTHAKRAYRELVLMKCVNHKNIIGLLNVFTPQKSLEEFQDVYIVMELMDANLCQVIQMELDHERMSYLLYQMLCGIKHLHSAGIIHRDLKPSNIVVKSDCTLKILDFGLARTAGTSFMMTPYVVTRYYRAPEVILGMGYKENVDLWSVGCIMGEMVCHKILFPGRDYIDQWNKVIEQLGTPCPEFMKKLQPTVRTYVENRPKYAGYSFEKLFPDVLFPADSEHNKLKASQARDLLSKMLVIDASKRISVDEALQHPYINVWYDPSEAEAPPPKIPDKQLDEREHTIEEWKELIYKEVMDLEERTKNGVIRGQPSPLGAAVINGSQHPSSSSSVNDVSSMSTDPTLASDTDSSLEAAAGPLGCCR
Procedure: as §1, §2

[5] = design: method as in PMID 26796641; settings: mice, 30 mg/kg/d; cited from earlier work
[6] = design: method as in PMID 27935476; settings: colon cancer and leukemia mouse xenograft models; cited from earlier work
[7] = tested on: rats; settings: cited from earlier work
[8] = tested on: dogs; settings: cited from earlier work
[9] = molecular target: T3, CDK19 (Homo sapiens, UniProt Q9BWU1); assay: KdELECT Kd determination, CDK19; format: binding; design: purchased DiscoverX
Procedure: (§3) To determine dissociation constants (Kds) of compounds on different targets, an 11-point 3-fold serial dilution of each test compound was tested in independent duplicate assays.
Target sequence in this assay (Q9BWU1 whole entry): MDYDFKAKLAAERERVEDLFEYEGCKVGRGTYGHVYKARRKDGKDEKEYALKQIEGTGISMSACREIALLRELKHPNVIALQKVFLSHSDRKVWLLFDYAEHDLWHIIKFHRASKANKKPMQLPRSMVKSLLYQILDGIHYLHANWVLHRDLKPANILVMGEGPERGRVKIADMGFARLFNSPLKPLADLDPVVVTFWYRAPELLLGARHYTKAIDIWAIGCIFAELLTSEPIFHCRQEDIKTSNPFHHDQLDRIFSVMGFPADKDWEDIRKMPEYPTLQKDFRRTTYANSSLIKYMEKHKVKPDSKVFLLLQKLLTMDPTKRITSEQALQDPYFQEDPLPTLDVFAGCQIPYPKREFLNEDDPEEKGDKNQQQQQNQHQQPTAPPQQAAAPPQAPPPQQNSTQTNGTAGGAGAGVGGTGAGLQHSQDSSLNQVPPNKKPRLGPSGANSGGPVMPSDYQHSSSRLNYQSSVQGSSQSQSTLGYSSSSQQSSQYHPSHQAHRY

[10] = molecular target: T4, PIKFYVE (Homo sapiens, UniProt Q9Y2I7); assay: KdELECT Kd determination, PIKFYVE; design: purchased DiscoverX; settings: 11-point 3-fold serial dilution, duplicate; read-out: Kd for the inhibition of nucleotide binding, PIKFYVE
T4 sequence (Q9Y2I7 whole entry): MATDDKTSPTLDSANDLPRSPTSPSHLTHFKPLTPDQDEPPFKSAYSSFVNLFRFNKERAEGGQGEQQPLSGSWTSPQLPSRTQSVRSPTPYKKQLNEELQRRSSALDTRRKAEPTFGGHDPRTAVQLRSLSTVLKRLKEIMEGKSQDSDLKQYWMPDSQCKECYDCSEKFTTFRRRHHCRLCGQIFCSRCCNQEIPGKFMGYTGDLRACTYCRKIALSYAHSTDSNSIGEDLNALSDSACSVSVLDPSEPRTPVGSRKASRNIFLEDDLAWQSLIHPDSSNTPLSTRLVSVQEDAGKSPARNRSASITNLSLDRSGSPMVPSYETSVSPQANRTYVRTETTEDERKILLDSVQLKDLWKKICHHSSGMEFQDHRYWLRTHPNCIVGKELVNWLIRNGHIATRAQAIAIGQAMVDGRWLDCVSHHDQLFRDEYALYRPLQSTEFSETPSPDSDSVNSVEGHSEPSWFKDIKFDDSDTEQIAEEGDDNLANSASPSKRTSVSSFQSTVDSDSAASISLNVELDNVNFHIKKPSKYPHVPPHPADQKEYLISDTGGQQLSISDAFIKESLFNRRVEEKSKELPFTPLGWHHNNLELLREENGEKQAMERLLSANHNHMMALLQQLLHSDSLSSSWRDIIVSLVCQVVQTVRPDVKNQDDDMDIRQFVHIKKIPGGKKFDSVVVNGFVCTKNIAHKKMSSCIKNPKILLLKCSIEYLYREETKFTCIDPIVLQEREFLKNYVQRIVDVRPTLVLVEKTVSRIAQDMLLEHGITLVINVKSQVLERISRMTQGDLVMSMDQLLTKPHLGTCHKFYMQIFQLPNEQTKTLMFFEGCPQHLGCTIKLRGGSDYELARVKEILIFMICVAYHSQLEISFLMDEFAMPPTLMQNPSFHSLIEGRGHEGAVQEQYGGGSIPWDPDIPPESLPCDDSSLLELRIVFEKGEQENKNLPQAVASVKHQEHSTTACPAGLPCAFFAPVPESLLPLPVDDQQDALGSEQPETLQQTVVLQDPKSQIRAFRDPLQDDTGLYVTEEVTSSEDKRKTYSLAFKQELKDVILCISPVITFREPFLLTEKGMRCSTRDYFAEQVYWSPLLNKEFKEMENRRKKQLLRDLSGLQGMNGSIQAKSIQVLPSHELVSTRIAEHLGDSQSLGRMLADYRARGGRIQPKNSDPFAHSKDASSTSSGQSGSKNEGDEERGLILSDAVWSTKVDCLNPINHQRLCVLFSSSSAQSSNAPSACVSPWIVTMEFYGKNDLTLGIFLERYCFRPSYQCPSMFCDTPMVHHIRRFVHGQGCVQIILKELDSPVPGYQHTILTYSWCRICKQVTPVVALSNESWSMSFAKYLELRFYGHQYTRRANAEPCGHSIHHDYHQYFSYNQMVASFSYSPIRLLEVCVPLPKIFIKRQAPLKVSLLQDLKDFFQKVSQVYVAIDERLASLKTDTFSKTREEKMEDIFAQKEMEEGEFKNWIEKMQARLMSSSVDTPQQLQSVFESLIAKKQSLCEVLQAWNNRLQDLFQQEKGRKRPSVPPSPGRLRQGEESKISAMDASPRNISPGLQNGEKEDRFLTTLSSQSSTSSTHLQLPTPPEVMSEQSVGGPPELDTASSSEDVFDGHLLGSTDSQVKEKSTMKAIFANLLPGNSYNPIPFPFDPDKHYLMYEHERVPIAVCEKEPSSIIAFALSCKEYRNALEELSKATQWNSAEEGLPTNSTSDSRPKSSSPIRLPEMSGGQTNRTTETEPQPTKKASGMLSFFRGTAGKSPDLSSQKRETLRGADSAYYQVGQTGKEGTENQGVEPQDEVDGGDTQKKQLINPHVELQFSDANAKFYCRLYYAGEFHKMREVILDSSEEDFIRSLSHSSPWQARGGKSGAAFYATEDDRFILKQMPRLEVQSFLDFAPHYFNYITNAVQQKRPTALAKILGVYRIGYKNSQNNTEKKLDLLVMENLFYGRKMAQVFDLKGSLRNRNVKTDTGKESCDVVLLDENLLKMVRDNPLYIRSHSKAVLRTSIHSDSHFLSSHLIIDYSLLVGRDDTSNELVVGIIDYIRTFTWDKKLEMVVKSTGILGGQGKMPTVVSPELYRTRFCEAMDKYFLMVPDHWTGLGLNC
Procedure: as §1, §2

[11] = molecular target: T4, PIKFYVE; assay: Phase-contrast microscopy for intracellular large vesicular structures (PIKFYVE inhibition); format: cell-based; design: endogenous in cells; host or cells: HEK293-WT and HEK293-dKO; settings: 3 h; both WT and dKO 293 cells
Procedure: To evaluate PIKFYVE kinase inhibition, HEK293-WT and HEK293-dKO cells were treated with CDK8/19 inhibitors at different drug concentrations for 3 h. Phase-contrast microscopy was then used to detect the formation of intracellular large vesicular structures, associated with PIKFYVE inhibition.

[12] = molecular target: T3, CDK19; assay: Cell-based QPCR assay of CDK8/19-dependent gene expression, HEK293 CDK8 single-knockout (8KO) cells; design: CDK8 single-knockout (8KO); endogenous in cells; host or cells: HEK293 CDK8 knockout (8KO); settings: 8KO, HEK293 8KO, 1 h pre-treatment, then 10 ng/mL TNFα 2 h
Target sequence in this assay (Q9BWU1 whole entry): as the sequence (Q9BWU1 whole entry) above
Target sequence in this assay (P24863 whole entry partner): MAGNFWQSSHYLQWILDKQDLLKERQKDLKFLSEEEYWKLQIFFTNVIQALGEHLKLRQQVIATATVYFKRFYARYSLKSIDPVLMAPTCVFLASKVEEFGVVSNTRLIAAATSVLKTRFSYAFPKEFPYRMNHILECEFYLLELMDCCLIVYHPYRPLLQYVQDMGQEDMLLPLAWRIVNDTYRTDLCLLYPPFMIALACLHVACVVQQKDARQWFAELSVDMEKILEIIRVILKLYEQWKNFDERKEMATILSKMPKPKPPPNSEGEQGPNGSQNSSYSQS
Procedure: (§6) CDK8/CDK19 single knockout and double knockout derivatives of human embryonic kidney (HEK) 293 cells (ATCC CRL-1573) were generated as previously described [18]. All cells were cultured in DMEM (high-glucose) media supplemented with 10% fetal bovine serum (FBS) and Penicillin-Streptomycin-Glutamine (1×) at 37 °C with 5% CO2 and routinely confirmed to be free of mycoplasma.
as §4
(§7) The IC50 values for different inhibitors in inhibiting CDK8/19-dependent gene expression were calculated using a three-parameter least square (ordinary) fitting method with GraphPad Prism 7.0 (GraphPad Software, San Diego, CA, USA). The Kruskal–Wallis non-parametric ANOVA was used to compare gene expression levels under no-inhibitor conditions between wild-type cells and knockout derivatives (8KO, 19KO and dKO) with GraphPad Prism 7.0.
as §5

[13] = tested on: dechorionated zebrafish embryos (Danio rerio, AB strain); assay: Zebrafish toxicity assay, mechanically dechorionated embryos (AB strain); format: in vivo; settings: 1 μM; starting after 72 hpt
Procedure: The toxicity screen using dechorionated zebrafish embryos (Danio rerio, AB strain) was performed by Arkana Laboratories, Little Rock, AR, as a service. The toxicity of different CDK8/19 inhibitors was evaluated in sterile 96-well plates with U-shaped bottoms. 12 wells (i.e., biological replicates) per test chemical and the vehicle control (0.1% DMSO) were used and the experiment was performed in triplicate. Treatment was performed via addition of 20 µL of 10× concentrations of each tested compound in 1% DMSO-containing egg water to each well containing one 24 hpf (hours post fertilization) mechanically-dechorionated embryo in 180 µL volume of egg water (i.e., 0.1% final DMSO concentration). The fish embryos cultured at 28.5 °C were examined at 24, 48, 72 and 96 h post treatment (hpt) and scored as “healthy”, “abnormal” or “dead”. Phenotypes observed and assessed as abnormal included: cardiac edema (intermediate and severe stages), overall edema, enlarged head, malformation of the eyes, curved body axis, shortened body axis and malformation of the tail. […] Positive control 3,4-dichloroaniline (3,4-DCA) was tested at 8 mg/L.

[14] = molecular target: T5, GSK3A (Homo sapiens, UniProt P49840); assay: KdELECT Kd determination, GSK3A; settings: 11-point 3-fold serial dilution, duplicate; read-out: Kd for the inhibition of nucleotide binding, GSK3A
T5 construct: purchased DiscoverX
Procedure: as §1, §2

[15] = molecular target: T6, GSK3B (Homo sapiens, UniProt P49841); assay: KdELECT Kd determination, GSK3B; settings: 11-point 3-fold serial dilution, duplicate; read-out: Kd for the inhibition of nucleotide binding, GSK3B
T6 construct: purchased DiscoverX
T6 sequence (P49841 whole entry): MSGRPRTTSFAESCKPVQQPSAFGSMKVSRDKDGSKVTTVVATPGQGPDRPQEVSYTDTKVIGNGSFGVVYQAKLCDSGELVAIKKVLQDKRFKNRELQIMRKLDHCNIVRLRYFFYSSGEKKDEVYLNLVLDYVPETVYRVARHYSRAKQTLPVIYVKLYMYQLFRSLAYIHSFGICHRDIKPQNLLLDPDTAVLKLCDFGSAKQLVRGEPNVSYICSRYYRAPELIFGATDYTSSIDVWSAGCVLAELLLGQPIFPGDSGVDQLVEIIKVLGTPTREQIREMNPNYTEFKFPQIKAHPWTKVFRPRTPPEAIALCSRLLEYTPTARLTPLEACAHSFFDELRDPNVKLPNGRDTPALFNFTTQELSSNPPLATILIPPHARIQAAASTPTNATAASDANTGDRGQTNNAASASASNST
Procedure: as §3

[16] = molecular target: T7, GSK3β (Homo sapiens, UniProt P49841); assay: ADP-Glo Kinase Assay, GSK3β kinase activity; format: biochemical; settings: 25 μM ATP, 60 min, room temperature
T7 construct: purchased Promega
T7 sequence (P49841 whole entry): as above
Procedure: Effects of different compounds on GSK3β kinase activity were evaluated using ADP-Glo^TM Kinase Assay kit and GSK3β Kinase Enzyme System (Promega, Madison, WI, USA). Kinase reactions were carried out at room temperature for 60 min. Each reaction contained 1 ng GSK3β enzyme, 25 μM ATP, 0.2 μg/μL GSK3 substrate and test compounds at different concentrations. Equal volume of ADP-Glo reagent was then added to kinase reaction and incubated at room temperature for 40 min, followed by the addition of Kinase Detection Reagent and incubation at room temperature for another 20 min. Bioluminescence signals were measured in 384-well plates using ChemiDoc Touch™ (Bio-Rad) and ImageLab software (Bio-Rad, Version 5.2.1 build 11). Effects of inhibitors were presented as relative kinase activity, calculated from […].

[17] = molecular target: T8, CDK8 (Homo sapiens, UniProt P49336); assay: KdELECT Kd determination, CDK8; format: binding; design: purchased DiscoverX
Procedure: as §3
Target sequence in this assay (P49336 whole entry): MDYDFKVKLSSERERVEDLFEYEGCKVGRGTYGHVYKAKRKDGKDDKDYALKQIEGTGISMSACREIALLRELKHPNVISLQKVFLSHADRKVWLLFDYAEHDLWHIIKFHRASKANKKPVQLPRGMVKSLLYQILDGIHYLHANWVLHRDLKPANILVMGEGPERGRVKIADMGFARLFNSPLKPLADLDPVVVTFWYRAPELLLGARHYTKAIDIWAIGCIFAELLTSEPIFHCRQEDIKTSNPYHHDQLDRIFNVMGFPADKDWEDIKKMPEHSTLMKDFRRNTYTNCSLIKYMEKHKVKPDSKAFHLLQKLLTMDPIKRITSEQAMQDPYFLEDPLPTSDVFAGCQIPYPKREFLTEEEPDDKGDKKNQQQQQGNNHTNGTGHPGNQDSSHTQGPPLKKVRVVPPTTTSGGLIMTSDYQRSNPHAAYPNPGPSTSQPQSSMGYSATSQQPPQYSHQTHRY

[18] = molecular target: T8, CDK8; assay: Cell-based QPCR assay of CDK8/19-dependent gene expression, HEK293 CDK19 single-knockout (19KO) cells; design: CDK19 single-knockout (19KO); endogenous in cells; host or cells: HEK293 CDK19 knockout (19KO); settings: 19KO, HEK293 19KO, 1 h pre-treatment, then 10 ng/mL TNFα 2 h
Target sequence in this assay (P49336 whole entry): as above
Target sequence in this assay (P24863 whole entry partner): as the sequence (P24863 whole entry partner) above
Procedure: as §6, §4, §7, §5

[19] = read-out: IC50, CXCL1 mRNA expression, WT
[20] = read-out: IC50, CXCL8 mRNA expression, WT
[21] = read-out: IC50, MYC mRNA expression, WT

SMILES	IC50 [2, 19] [nM]	IC50 [2, 20] [nM]	IC50 [2, 21] [nM]	Weight loss in mice [6]	Toxicity in rats [7]	Toxicity in dogs [8]	Kd [9] [nM]	IC50 ([12]; IC50, CXCL1 mRNA expression) [nM]	IC50 ([12]; IC50, CXCL8 mRNA expression) [nM]	IC50 ([12]; IC50, MYC mRNA expression) [nM]	other results
Cn1ncc2cc(-c3cnc(N)c(Cl)c3N3CCC4(CCNC4=O)CC3)ccc21 [Cmpd3]	3.2	3.3	4.1	detectable weight loss	multiple and striking toxicities, including lethality	multiple and striking toxicities, including lethality	59	3.1	6.1	0.9	Toxicity in zebrafish assays at higher concentrations ([1]; 2 μM, TU strain): moderate but significant toxicity; Kd [3]: 420 nM; Kd [4]: 390 nM; Total plasma concentration after 1 h [5]: 14.1 µM; Total plasma concentration after 2 h [5]: 6.9 µM; Total plasma concentration after 6 h [5]: 0.8 µM; Kd [10]: 100 nM; Formation of large vesicular structures inside cells [11]: caused the formation of large vesicular structures
Cc1n[nH]c2ncc(C(=O)N3CCC[C@H]3c3ccc(Cl)cc3)cc12 [Cmpd4]	1.8	2.1	2.4	detectable weight loss	multiple and striking toxicities, including lethality	multiple and striking toxicities, including lethality	94	2.4	1.9	1.4	Toxicity in dechorionated AB zebrafish larvae [13]: severe toxicity; Toxicity in TU strain zebrafish embryos ([1]; all the tested concentrations (0.5 μM, 1 μM and 2 μM), 3-5 days): very strong toxicity; Kd [14]: 450 nM; Kd [15]: 190 nM; IC50 [16]: ~400 nM and 396 nM; Kd [17]: 115 nM; IC50 ([18]; IC50, CXCL1 mRNA expression): 3.2 nM; IC50 ([18]; IC50, CXCL8 mRNA expression): 3.1 nM; IC50 ([18]; IC50, MYC mRNA expression): 1.9 nM
